The values below come from US11840528B2 (Hoffmann-La Roche Inc., priority 2018, dated 2023).

Assay [1] addresses T1, h-GABA-A α5β3γ2 (Homo sapiens, UniProt P18507+P31644). As to the kind of experiment: Two-electrode voltage clamp electrophysiology in Xenopus laevis oocytes expressing GABAA receptors, modulation of GABA EC20 current. The format is cell-based. The arrangement: host or cells: Xenopus laevis oocytes micro-injected with RNA transcripts of the subunits. The method, boiled down: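 Human α5β3γ2 GABAA receptors were expressed in Xenopus oocytes by RNA injection, with γ2 RNA 5–10-fold higher, and recorded 3–5 days later by two-electrode voltage clamp at −80 mV at room temperature. The test compound, at about 30× its Ki, was co-applied during a second GABA EC20 pulse. Efficacy is the extremum of the point-by-point ratio to the first response, expressed as 100*(Fold increase−1).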
(Two-electrode voltage clamp is typically applied to oocytes expressing channels or transporters.)

Assay [2] deals with T1, h-GABA-A α5β3γ2. Kind of assay: [3H]flumazenil competition binding assay, membranes of HEK293 cells expressing GABAA receptors. The method in brief:
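Membranes from HEK293 cells transiently expressing human α5β3γ2 GABAA receptors, in Krebs-tris buffer pH 7.5, competed against [3H]flumazenil for 1 hour at 4° C to equilibrium. Bound radioactivity collected on GF/C filters and counted by liquid scintillation; Ki values are means of two determinations.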

[3] abbreviates: % modulation of GABA EC20 = 100*(Fold increase-1), Table 1.
Where [4] appears, read: test compound at approx. 30 fold its Ki, GABA at EC20, Table 1.
[5] abbreviates: displacement of [3H]-Flumazenil 0.5 nM, HEK293 cells expressing human receptors, mean of two determinations, Table 1.

As a reminder, the Ki is a measure of affinity in units of concentration, obtained from inhibition or displacement. A high value points to lower affinity. Turning to `Cc1ccc(-c2noc(C)c2Cn2ncc(N3CCN(C(C)C)[C@@H](C)C3)cc2=O)cn1` [Example 184, 5-[(3S)-4-isopropyl-3-methyl-piperazin-1-yl]-2-[[5-methyl-3-(6-methyl-3-pyridyl)isoxazol-4-yl]methyl]pyridazin-3-one], in assay [1] (setting [3]), the “Efficacy (GABA) %” value was found to be 125%. Besides, the “Fold increase h-GABA-A α5β3γ2 oocyte” value in assay [1] (setting [4]) stood at 2.25. The Ki in assay [2] (setting [5]) came out at 28.8 nM.

Turning to `CCn1cc(-c2cnn(Cc3c(-c4ccc(Cl)nc4)noc3C)c(=O)c2)cn1` [Example 221, 2-((3-(6-chloropyridin-3-yl)-5-methylisoxazol-4-yl)methyl)-5-(1-ethyl-1H-pyrazol-4-yl)pyridazin-3(2H)-one], the “Efficacy (GABA) %” value in assay [1] (setting [3]) is 99%. Moreover, the “Fold increase h-GABA-A α5β3γ2 oocyte” value in assay [1] (setting [4]) is 1.99. The molecule further displayed a Ki in assay [2] (setting [5]) of 31.2 nM.

For `Cc1ccc(-c2noc(C)c2Cn2ncc(N3CC[C@@H](C)C3)cc2=O)cn1` [Example 178, 2-[[5-methyl-3-(6-methyl-3-pyridyl)isoxazol-4-yl]methyl]-5-[(3R)-3-methylpyrrolidin-1-yl]pyridazin-3-one], the “Efficacy (GABA) %” value in assay [1] (setting [3]) came out at 158%. In assay [1] (setting [4]), the “Fold increase h-GABA-A α5β3γ2 oocyte” value was determined as 2.58. In assay [2] (setting [5]), this molecule had a Ki of 2.7 nM.

Turning to `Cc1ccc(-c2noc(C)c2Cn2ncc(N3CC(F)C3)cc2=O)cn1` [Example 181, 5-(3-fluoroazetidin-1-yl)-2-[[5-methyl-3-(6-methyl-3-pyridyl)isoxazol-4-yl]methyl]pyridazin-3-one], in assay [1] (setting [3]), the “Efficacy (GABA) %” value is on record as 134%. In addition, the “Fold increase h-GABA-A α5β3γ2 oocyte” value in assay [1] (setting [4]) was 2.34. In addition, the inhibition constant Ki in assay [2] (setting [5]) is 15.7 nM.

On to `Cc1ccc(-c2noc(C)c2Cn2ncc(N(C)C3CN(C4CC4)C3)cc2=O)cn1` [Example 137, 5-((1-cyclopropylazetidin-3-yl)(methyl)amino)-2-((5-methyl-3-(6-methylpyridin-3-yl)isoxazol-4-yl)methyl)pyridazin-3(2H)-one], for which the “Efficacy (GABA) %” value in assay [1] (setting [3]) was found to be 110%. Besides, the “Fold increase h-GABA-A α5β3γ2 oocyte” value in assay [1] (setting [4]) turned out to be 2.1. Moreover, the Ki in assay [2] (setting [5]) turned out to be 22.9 nM.

Consider `CCOC1CN(c2cnn(Cc3c(-c4ccc(Cl)nc4)noc3C)c(=O)c2Cl)C1` [Example 272, 4-chloro-2-((3-(6-chloropyridin-3-yl)-5-methylisoxazol-4-yl)methyl)-5-(3-ethoxyazetidin-1-yl)pyridazin-3(2H)-one], for which, in assay [1] (setting [3]), the “Efficacy (GABA) %” value is listed as 135%. Also, in assay [1] (setting [4]), the “Fold increase h-GABA-A α5β3γ2 oocyte” value came out at 2.35. In addition, in assay [2] (setting [5]), the Ki is 26.4 nM.

Take `Cc1cc(-c2noc(C)c2Cn2ncc(N3C[C@@H](C)O[C@@H](C)C3)cc2=O)no1` [Example 62, 5-(cis-2,6-dimethylmorpholin-4-yl)-2-[[5-methyl-3-(5-methylisoxazol-3-yl)isoxazol-4-yl]methyl]pyridazin-3-one]: the “Efficacy (GABA) %” value in assay [1] (setting [3]) amounted to 88%. Besides, in assay [1] (setting [4]), the “Fold increase h-GABA-A α5β3γ2 oocyte” value came out at 1.88. Besides, in assay [2] (setting [5]), the affinity, expressed as Ki, was 0.6 nM.

For `Cc1ccc(-c2noc(C)c2Cn2ncc(N3CC[C@@H](OC(C)(C)C)C3)cc2=O)nn1` [Example 261, 5-[(3R)-3-tert-butoxypyrrolidin-1-yl]-2-[[5-methyl-3-(6-methylpyridazin-3-yl)isoxazol-4-yl]methyl]pyridazin-3-one], the “Efficacy (GABA) %” value in assay [1] (setting [3]) is on record as 77%. Also, in assay [1] (setting [4]), the “Fold increase h-GABA-A α5β3γ2 oocyte” value is 1.77. For the same molecule, in assay [2] (setting [5]), the Ki was determined as 3.6 nM.

With `Cc1ccc(-c2noc(C)c2Cn2ncc(N3CC4(CCC4)C3)cc2=O)cn1` [Example 69, 5-(2-azaspiro[3.3]heptan-2-yl)-2-[[5-methyl-3-(6-methyl-3-pyridyl)isoxazol-4-yl]methyl]pyridazin-3-one], the “Efficacy (GABA) %” value in assay [1] (setting [3]) is reported as 155%. In addition, in assay [1] (setting [4]), the “Fold increase h-GABA-A α5β3γ2 oocyte” value was 2.55. This molecule also came in with an inhibition constant Ki in assay [2] (setting [5]) of 38.9 nM.

Consider `COc1cc(-c2cnn(Cc3c(-c4ccc(Cl)nc4)noc3C)c(=O)c2)ccn1` [Example 214, 2-((3-(6-chloropyridin-3-yl)-5-methylisoxazol-4-yl)methyl)-5-(2-methoxypyridin-4-yl)pyridazin-3(2H)-one], for which the “Efficacy (GABA) %” value in assay [1] (setting [3]) is on record as 74%. For the same molecule, the “Fold increase h-GABA-A α5β3γ2 oocyte” value in assay [1] (setting [4]) was 1.74. In assay [2] (setting [5]), this molecule yielded a Ki of 8.3 nM.

On to `Cc1ccc(-c2noc(C)c2Cn2ncc(N3CC4(C3)CN(C3CC3)C4)cc2=O)cn1` [Example 58, 5-(2-cyclopropyl-2,6-diazaspiro[3.3]heptan-6-yl)-2-[[5-methyl-3-(6-methyl-3-pyridyl)isoxazol-4-yl]methyl]pyridazin-3-one], for which the “Efficacy (GABA) %” value in assay [1] (setting [3]) turned out to be 209%. In addition, the “Fold increase h-GABA-A α5β3γ2 oocyte” value in assay [1] (setting [4]) was 3.09. For the same molecule, affinity in assay [2] (setting [5]) was put at a Ki of 70.4 nM.

Regarding `Cc1onc(-c2ccc(Cl)nc2)c1Cn1ncc(N2CC3(CCCCO3)C2)cc1=O` [Example 233, 2-((3-(6-chloropyridin-3-yl)-5-methylisoxazol-4-yl)methyl)-5-(5-oxa-2-azaspiro[3.5]nonan-2-yl)pyridazin-3(2H)-one], the “Efficacy (GABA) %” value in assay [1] (setting [3]) stood at 82%. In assay [1] (setting [4]), the “Fold increase h-GABA-A α5β3γ2 oocyte” value was 1.82. This molecule showed a Ki in assay [2] (setting [5]) of 33.6 nM.

For `Cc1ccc(-c2noc(C)c2Cn2ncc(N3C[C@@H](C)N[C@@H](C)C3)cc2=O)cn1` [Example 93, 5-[(3R,5S)-3,5-dimethylpiperazin-1-yl]-2-[[5-methyl-3-(6-methyl-3-pyridyl)isoxazol-4-yl]methyl]pyridazin-3-one], in assay [1] (setting [3]), the “Efficacy (GABA) %” value stood at 125%. In addition, the “Fold increase h-GABA-A α5β3γ2 oocyte” value in assay [1] (setting [4]) came out at 2.25. Also, affinity in assay [2] (setting [5]) was put at a Ki of 1.6 nM.

With `Cc1onc(-c2ccc(Cl)nc2)c1Cn1ncc(-c2cnn(C3CC3)c2)cc1=O` [Example 222, 2-((3-(6-chloropyridin-3-yl)-5-methylisoxazol-4-yl)methyl)-5-(1-cyclopropyl-1H-pyrazol-4-yl)pyridazin-3(2H)-one], the “Efficacy (GABA) %” value in assay [1] (setting [3]) was 82%. Besides, in assay [1] (setting [4]), the “Fold increase h-GABA-A α5β3γ2 oocyte” value was found to be 1.82. Further, in assay [2] (setting [5]), affinity was put at a Ki of 31.2 nM.

As to `Cc1ccc(-c2noc(C)c2Cn2ncc(N3CC(Oc4ccncc4)C3)cc2=O)cn1` [Example 129, 2-[[5-methyl-3-(6-methyl-3-pyridyl)isoxazol-4-yl]methyl]-5-[3-(4-pyridyloxy)azetidin-1-yl]pyridazin-3-one], the “Efficacy (GABA) %” value in assay [1] (setting [3]) is on record as 198%. Moreover, the “Fold increase h-GABA-A α5β3γ2 oocyte” value in assay [1] (setting [4]) is 2.98. The same molecule registered an inhibition constant Ki in assay [2] (setting [5]) of 4.5 nM.

Regarding `Cc1ccc(-c2noc(C)c2Cn2ncc(N3CC(OC(C)C)C3)cc2=O)cn1` [Example 112, 5-(3-isopropoxyazetidin-1-yl)-2-[[5-methyl-3-(6-methyl-3-pyridyl)isoxazol-4-yl]methyl]pyridazin-3-one], the “Efficacy (GABA) %” value in assay [1] (setting [3]) is recorded as 101%. Besides, the “Fold increase h-GABA-A α5β3γ2 oocyte” value in assay [1] (setting [4]) was 2.01. Also, in assay [2] (setting [5]), the Ki was 38 nM.

With `Cc1ccc(-c2noc(C)c2Cn2ncc(N3C4CCC3COC4)cc2=O)cn1` [Example 35, 2-[[5-methyl-3-(6-methyl-3-pyridyl)isoxazol-4-yl]methyl]-5-(3-oxa-8-azabicyclo[3.2.1]octan-8-yl)pyridazin-3-one], the “Efficacy (GABA) %” value in assay [1] (setting [3]) is recorded as 179%. Also, the “Fold increase h-GABA-A α5β3γ2 oocyte” value in assay [1] (setting [4]) stood at 2.79. The molecule also gave a Ki in assay [2] (setting [5]) of 0.8 nM.

Turning to `Cc1onc(-c2ccc(Cl)cn2)c1Cn1ncc(N2C[C@@H](C)O[C@@H](C)C2)cc1=O` [Example 13, 2-((3-(5-Chloropyridin-2-yl)-5-methylisoxazol-4-yl)methyl)-5-(cis-2,6-dimethylmorpholino)pyridazin-3(2H)-one], in assay [1] (setting [3]), the “Efficacy (GABA) %” value worked out at 94%. For the same molecule, in assay [1] (setting [4]), the “Fold increase h-GABA-A α5β3γ2 oocyte” value is given as 1.94. In assay [2] (setting [5]), this molecule displayed an inhibition constant (Ki) of 0.7 nM.

`Cc1onc(-c2ccccc2)c1COc1ccc(N2CCOCC2)nn1` [RO-036, reference compound]: the “Efficacy (GABA) %” value in assay [1] (reference compounds, % modulation of GABA EC20, Table 2) is −28%. Besides, in assay [1] (reference compounds, Table 2), the “Fold increase h-GABA-A α5β3γ2 oocyte” value is 0.72. Moreover, the Ki in assay [2] (reference compounds, Table 2) turned out to be 9.45 nM.

For `Cc1ccc(-c2noc(C)c2Cn2ncc(N3CC4(CC(C)CCO4)C3)cc2=O)nn1` (single isomer, unassigned) [Example 317], in assay [1] (setting [3]), the “Efficacy (GABA) %” value came to 68%. Also, the “Fold increase h-GABA-A α5β3γ2 oocyte” value in assay [1] (setting [4]) was 1.68. Also, in assay [2] (setting [5]), affinity was put at a Ki of 4.9 nM.

For `Cc1ccc(-c2noc(C)c2Cn2ncc(-c3ccccc3)cc2=O)cn1` [Example 67, 2-((5-methyl-3-(6-methylpyridin-3-yl)isoxazol-4-yl)methyl)-5-phenylpyridazin-3(2H)-one], the “Efficacy (GABA) %” value in assay [1] (setting [3]) amounted to 107%. The “Fold increase h-GABA-A α5β3γ2 oocyte” value in assay [1] (setting [4]) is given as 2.07. This molecule also displayed a Ki in assay [2] (setting [5]) of 10.5 nM.

As for `CCOC(=O)C1CCN(c2cnn(Cc3c(-c4ccc(C)nc4)noc3C)c(=O)c2)CC1` [Example 8, ethyl 1-(1-((5-methyl-3-(6-methylpyridin-3-yl)-1,2-oxazol-4-yl)methyl)-6-oxopyridazin-4-yl)piperidine-4-carboxylate], the “Efficacy (GABA) %” value in assay [1] (setting [3]) is given as 168%. For the same molecule, the “Fold increase h-GABA-A α5β3γ2 oocyte” value in assay [1] (setting [4]) was 2.68. The molecule also displayed a Ki in assay [2] (setting [5]) of 26.4 nM.

In the case of `Cc1onc(-c2ccc(Cl)nc2)c1Cn1ncc(N2CC3(CCC(F)CO3)C2)cc1=O` (single isomer, unassigned) [Example 297], in assay [1] (setting [3]), the “Efficacy (GABA) %” value amounted to 130%. For the same molecule, the “Fold increase h-GABA-A α5β3γ2 oocyte” value in assay [1] (setting [4]) is 2.3. The same molecule came in with an inhibitory constant (Ki) in assay [2] (setting [5]) of 10.7 nM.

For `COC1CN(c2cnn(Cc3c(-c4ccc(C(F)(F)F)nn4)noc3C)c(=O)c2)C1` [Example 281, 5-(3-methoxyazetidin-1-yl)-2-((5-methyl-3-(6-(trifluoromethyl)pyridazin-3-yl)isoxazol-4-yl)methyl)pyridazin-3(2H)-one], the “Efficacy (GABA) %” value in assay [1] (setting [3]) is 105%. Further, in assay [1] (setting [4]), the “Fold increase h-GABA-A α5β3γ2 oocyte” value amounted to 2.05. This molecule also registered a Ki in assay [2] (setting [5]) of 9.4 nM.
